Measured values reported in PubChem BioAssay (NCI).
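Briefly, cells in 96-well plates were exposed to five compound concentrations for 48 h, and endpoints were estimated by linear interpolation. GI50: concentration for 50% inhibition of growth. The concentration for full growth arrest is given as TGI.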

Legend:
[1] = test system: P388 leukemia; experiment: NCI tumour cell line growth inhibition, 48 h
[2] = test system: SN12K1 renal; experiment: NCI tumour cell line growth inhibition, 48 h

`O=C(O)C1(C(=O)O)CCC1.[NH2-].[NH2-].[Pt+2]` gave a GI50 [1] of 15.4 µM, a TGI [1] of 169 µM and a GI50 [2] of 107 µM. The TGI [2] was 185 µM.
